From US20260263623A1, “STAPLED PEPTIDE-ANTIBODY CONJUGATES (SPACS) AND USES THEREOF” (priority 2021, published 2026)

Experiments:
[1] = tested on: MCF7 cell line with low HER2 expression (HER2+), p53 WT; assay: 72 hour cytotoxicity assay (CellTiter-Glo), MCF7; type: cell-based; details: wild-type p53 (sensitive to MDM2 inhibition), FIG. 6A
Experimental: (§1) Cell culture: Cell lines were maintained in appropriate medium supplemented with fetal bovine serum to a final concentration of 10%.
(§2) 72 hour cytotoxicity assay: Cells were plated in a 96-well format, and after 24 hour incubation, serial dilutions of SPACs from a 1 mg/mL stock, or vehicle, were then added to the cells in a final volume of 100 μl. After incubating at 37° C. for 72 hours, 100 μl of CellTiter-Glo® reagent was added to the cells, and the plates were incubated 15 minutes at room temperature. Luminescence was then measured on a microplate reader.

[2] = tested on: HER2+++ p53 mut breast cancer cell line (SK-BR-3); assay: 72 hour cytotoxicity assay (CellTiter-Glo), SK-BR-3; type: cell-based; details: SK-BR-3, highly expresses HER2, mutated p53 (insensitive to MDM2 inhibition); FIG. 6B
Experimental: as §1, §2

Trastuzumab emtansine
anti-proliferative activity [1]: no activity
activity (efficacy vs concentration) [2]: shows efficacy at relatively low concentration
